Laboratory results as given in patent US12643853B2, “Cannabigerol proline cocrystals” (Manoira Corporation, priority 2019, dated 2026).

Key:
[1] = Solid-state stability of cannabigerol Form I at 50° C.; assay type: physicochemical; conditions: oven at 50° C. for 10 minutes; for solid form by XRPD after heating and cooling: then allowed to cool
Description: A study was carried out to assess the stability of cannabigerol Form I under conditions of temperatures commonly reached during processing and storage. Cannabigerol Form I (50 mg) was placed in an oven at 50° C. for 10 minutes. […] The sample was allowed to cool after which time a solid was produced.

[2] = oven at 100° C. for 20 hours
Description: (§1) X-Ray Powder Diffraction Characterisation: X-ray powder diffraction patterns for the samples were acquired on a Bruker D8 diffractometer using CuKα radiation (40 kV, 40 mA), θ-2θ goniometer, V4 receiving slits, a Ge monochromator and a Lynxeye detector. The instrument is performance checked using a certified Corundum standard (NIST 1976). The data were collected over an angular range of 4° to 30° 2Θ using a step size of 0.05° 2Θ and a step time of 4 seconds. Samples were run under ambient conditions as flat plate specimens using powder as received. Approximately, 35 mg of the sample was gently packed into a cavity cut into polished, zero background (510) silicon wafer. The software used for data collection and analysis was Diffrac Plus XRD Commander and Diffrac Plus EVA respectively.

[3] = sealed container, 40° C. and 75% relative humidity, 8 weeks
Description: as §1
A study was carried out to examine the physical stability of the 1:2 cannabigerol L-proline cocrystal with respect to solid form conversion or deliquescence over time under accelerated conditions. 1:2 Cannabigerol L-proline cocrystal (50 mg) was placed in a sealed container at 40° C. and 75% relative humidity and stored under these conditions for 8 weeks. […] The sample was analysed by XRPD to observe any potential form changes.

Row | SMILES | physical state after heating [1] | solid form by XRPD after heating and cooling [1] | solid form by XRPD after heating and cooling ([1]; listed as cannabigerol Form I) | physical state after heating ([1]; listed as cannabigerol Form I) | solid form conversion by XRPD after high temperature storage [2] | physical state / deliquescence after storage [3] | solid form conversion by XRPD after storage ([3]; XRPD)
1 | CCCCCc1cc(O)c(C/C=C(\C)CCC=C(C)C)c(O)c1 [Cannabigerol Form I, 2-[(2E)-3,7-dimethylocta-2,6-dienyl]-5-pentyl-benzene-1,3-diol] | melted to produce an oil | undergone a polymorph transition to form a new polymorphic form (designated Form III) | undergone a form conversion to a previously unidentified polymorph (designated Form III) | became a liquid |  |  | 
2 | CCCCCc1cc(O)c(C/C=C(\C)CCC=C(C)C)c(O)c1.O=C(O)[C@@H]1CCCN1.O=C(O)[C@@H]1CCCN1 [1:2 cannabigerol L-proline cocrystal] |  |  |  |  | retained its original crystalline form | completely solid with no signs of deliquescence | retained its original crystalline form
